According to patent publication US10092620B2, “Uses of cyclic peptides for treating and preventing atherosclerosis” (THE SCRIPPS RESEARCH INSTITUTE, priority 2013, dated 2018):
Non-standard residues stand in square brackets, D forms with d. Residues, ends and D or L forms follow the SMILES beside them. dNMeW = CN[C@H](Cc1c[nH]c2ccccc12)C(=O)O; 1Nal = N[C@@H](Cc1cccc2ccccc12)C(=O)O; dNMeS = CN[C@H](CO)C(=O)O; Orn = NCCC[C@H](N)C(=O)O

How the values were obtained:
HDL in human plasma = test: pre-beta HDL ELISA assay: remodeling HDL in human plasma in vitro; type: biochemical; settings: pre-beta HDL ELISA
Protocol: First, various cyclic peptides, including the majority of compounds shown in FIG. 2, were assessed for activities for remodeling HDL in human plasma in vitro. Unlike western blot which was used to generate data shown in FIG. 2, here a pre-beta HDL ELISA assay was used to measure pre-beta HDL levels. Results from the assay are shown in Table 1, which lists the peptides in the order of their activities in remodeling HDL.

[1] = test system: mouse macrophage J774 cells; test: cholesterol efflux from mouse macrophage cells incubated with peptide-treated human plasma; type: cell-based; settings: for promotion of cellular cholesterol efflux (in words): J774 cells, 2% apoB-depleted peptide-treated human plasma, 4 h, FIG. 2b
Protocol: Selected cyclic D,L-α-peptides were further evaluated for their ability to promote cellular cholesterol efflux from mouse macrophage J774 cells. A main factor for HDL anti-atherogenicity is its role in reverse cholesterol transport, of which cellular cholesterol efflux is a critical component. To measure efflux mediated by the cyclic D,L-α-peptides, cholesterol-laden cells were incubated with peptide-treated plasma for 4 h, after which the level of cholesterol effluxed to the media was measured as described in Sankaranarayanan et al., J. Lipid Res. 52, 2332-2340, 2011.
Preparation of labeling medium: These procedures were modified from that reported in Sankaranarayanan et al., J. Lipid Res. 52, 2332-2340, 2011. The labeling medium was prepared by complexing the unlabeled cholesterol and BODIPY-cholesterol (20% of the total cholesterol) with methyl-β-cyclodextrin (CD) at a molar ratio of 1:40 (total cholesterol/CD). Unlabeled cholesterol and BODIPY-cholesterol were dissolved in chloroform and dried in a round bottom flask by rotor-evaporation in the dark to form a thin film. The cholesterol mixture was solubilized by adding 20 mM CD in MEM-HEPES buffer. The suspension was sonicated in a water bath (37° C.) for at 1 h, stirred at 37° C. for 3 h, filtered using a 0.45-μm syringe filter, and diluted with an equal volume of MEM-HEPES buffer containing 4 μg/mL Sandoz ACAT (acyl-CoA:cholesterol acyltransferase) inhibitor (Sigma). The final concentrations of BODIPY-cholesterol, unlabeled cholesterol, CD, and ACAT inhibitor in the labeling medium were 0.025 mM, 0.1 mM, 10 mM, and […], respectively.
Preparation of efflux medium: Just before the initiation of the efflux assays, the human plasma frozen at −80° C. was thawed, and 80 μL of plasma was incubated with 20 μL of cyclic peptide stocks (peptide stocks were 1-3 mg/mL in 10% sucrose) or the vehicle (10% sucrose) at 37° C. for 30 min. The treated plasma samples (100 μL) were then incubated with 25% PEG 8000 solution in 200 mM glycine buffer, pH 8.5 (40 μL) to precipitate apoB-containing lipoproteins (Asztalos et al., J. Lipid Res. 46, 2246-2253, 2005). After a 15-min incubation, the precipitate was removed by high-speed centrifugation (13,000 rpm, 10 min, 4° C.), and the supernatant (60 μL) was immediately diluted with MEM-HEPES buffer (1.5 mL) to give ˜2% whole plasma. This solution, containing the peptide remodeled-HDL lipoprotein fraction as cholesterol acceptors, was used as the efflux medium.
Cholesterol efflux from mouse macrophage cells: Mouse macrophage J774A.1 cells (TIB-67; American Type Culture Collection, Manassas, Va.) were seeded in 12-well culture plate at 3×10^5 cells/mL and cultured to 80-90% confluency in DMEM with 10% FBS at 5% CO2. Cells were rinsed twice with MEM-HEPES, incubated for 1 h with 0.25 ml of labeling medium containing CD/BODIPY-cholesterol/unlabeled cholesterol and 2 μg/mL Sandoz ACAT inhibitor, followed by washing twice with MEM-HEPES. The cholesterol-laden cells were equilibrated for 18 h in DMEM containing 5% LPDS, […] Sandoz ACAT inhibitor, and 0.3 mM Cpt-cAMP. After equilibration, the cells were washed twice with MEM-HEPES and incubated with 0.25 mL of efflux media for 4 h. At the end of the incubation time, the efflux media was removed and centrifuged (1200 rpm, 10 min) to remove floating cells, and the fluorescence intensity of 100 μL cell-free media was recorded using a Tecan GENios plate reader (excitation 485 nm, emission 535 nm). The obtained signals were background subtracted using the signal from unlabeled cells. The cell monolayers were rinsed twice with ice-cold MEM-HEPES and solubilized with 0.25 mL 1% cholic acid by shaking on a plate shaker for at least 4 h at room temperature; then the fluorescence intensity of 100 μL cell lysate was recorded and background subtracted using the signal from unlabeled cell lysate. […]

human plasma HDL = human plasma HDL remodeling (NDGGE, immunoblot for human apoA-I); type: biochemical; settings: human plasma in vitro; Western blot for apoA-I; FIGS. 1 and 2a
Excerpt: As an initial phase of investigation, we evaluated in vitro the effectiveness of our cyclic D,L-α-peptides to remodel mature human plasma HDLs into lipid-poor HDL (FIG. 1 and FIG. 2a). Lipid-poor HDL particles are key acceptors of cholesterol in reverse cholesterol transport and are thus crucial for combating atherosclerosis. In fact, with respect to the cholesterol efflux capacity of human sera, the levels of lipid-poor HDL correlate much better than the levels of HDL-cholesterol or apoA-I. Briefly, our assay involved incubating human plasma with a peptide, after which the plasma sample was subjected to non-denaturing gradient gel electrophoresis (NDGGE) to separate the HDL subspecies and then immunoblotted for human apoA-I. The ranked activities of the cyclic D,L-α-peptides in promoting formation of lipid-poor HDL are shown in FIG. 1. It should be noted that there are inherent variabilities associated with electrophoretic transfer, staining, and densitometric quantitation, so the peptide ranking should be viewed as an approximate guide to relative plasma HDL remodeling efficacy. Nevertheless, the rankings were similar overall whether the panel was assayed by using peptide stock solutions prepared in 10% sucrose/H2O (FIGS. 1 and 2a) or peptide stock solutions prepared in 1:1 DMSO/H2O. From these preliminary structure-activity relationship (SAR) studies, we identified a pronounced sequence dependence for efficient plasma HDL remodeling (vide infra).
Human plasma remodeling: All procedures involving human samples were approved by TSRI Institutional Review Board. Procedures were modified from those reported in Troutt et al., J. Lipid Res. 49, 581-587, 2008. Blood samples from normal healthy human donors were obtained from TSRI Normal Blood Donor Program. EDTA-anticoagulated whole blood was centrifuged at 1500×g for 15 min within 1 h of being drawn from the donor. The plasma layer was aliquoted and used immediately or frozen at −80° C. for future use. Peptide stock solutions were prepared at ˜15 mM peptide in 50% DMSO for initial screenings, or at ˜2 mM peptide in 10% sucrose for remodeling assays at lower concentrations (FIG. 1) and cholesterol efflux assays (FIG. 2). Plasma samples (30 μL) were treated with peptide stocks, and the samples were incubated at 37° C. for 0.5-1 h, and then quenched by adding 270 μL of 50% sucrose (1:9 dilution). Samples were mixed with 6× native loading buffer (125 mM tris, pH 6.8, 0.02% bromophenol, 20% glycerol), of which 6 μL was loaded onto a 4-20% polyacrylamide gel. The molecular weight ladder used was High Molecular Weight Calibration Kit (Amersham Biosciences, #17-0445-01). […] The films were scanned and quantified by densitometry using the program LabWorks (v. 4.0.0.8). […]

Compound | Pre-beta HDL generated (normalized level) (HDL in human plasma) | toxicity based on the cellular morphology and density ([1]; J774 cells in the efflux assay) | promotion of cellular cholesterol efflux (in words) [1] | plasma HDL remodeling to lipid-poor HDL (in words) (human plasma HDL)
CC(C)C[C@@H]1NC(=O)[C@@H](Cc2c[nH]c3ccccc23)NC(=O)[C@H](CCCN)NC(=O)[C@@H](CO)NC(=O)[C@H](CCC(N)=O)NC(=O)[C@@H](CCC(=O)O)NC(=O)[C@H](CO)NC(=O)[C@@H](Cc2c[nH]c3ccccc23)NC1=O [SEQ ID NO:4, c[wLwSeQsO]] (cyclo([dW]L[dW]S[dE]Q[dS][Orn])) | 0.59 | did not appear to be toxic | only marginally less effective than the α-helical apoA-I mimetic 4F | 
c[wLwErQrE] (cyclo([dW]L[dW]E[dR]Q[dR]E); SMILES CC(C)C[C@@H]1NC(=O)[C@@H](Cc2c[nH]c3ccccc23)NC(=O)[C@H](CCC(=O)O)NC(=O)[C@@H](CCCNC(=N)N)NC(=O)[C@H](CCC(N)=O)NC(=O)[C@@H](CCCNC(=N)N)NC(=O)[C@H](CCC(=O)O)NC(=O)[C@@H](Cc2c[nH]c3ccccc23)NC1=O) [SEQ ID NO:37] |  |  | dramatically reduced compared to that of compound 1 | dramatically reduced compared to that of compound 1
Ac-wLwSeQsO-NH2 (Ac-[dW]L[dW]S[dE]Q[dS][Orn]-NH2) [SEQ ID NO:45, acetylated linear peptide] |  |  | failed to remodel plasma HDL or promote cholesterol efflux | failed to remodel plasma HDL
c[wL^MewSeQ^MesO] (cyclo([dW]L[dNMeW]S[dE]Q[dNMeS][Orn])) [SEQ ID NO:14] |  |  | greatly diminished compared to the unmethylated parent, compound 4 | greatly diminished compared to the unmethylated parent, compound 4
66 (cyclo([dW][benzyltyrosine][dK]N[dN]K[dK]K); ring closure inferred) [compound 66] | 0.10 |  |  | 
w(Nal)wReQeR (cyclo([dW][1Nal][dW]R[dE]Q[dE]R); ring closure inferred) [SEQ ID NO:28] | 0.35 |  |  | 
